We go through three compounds from patent publication US20050192279A1, “Pyridazinones as antagonists of alpha4 integrins” (priority 2004, published 2005).

The target in one assay is T1, α4β1 (Homo sapiens, UniProt P05556+P13612).
T1 construct: Ramos Cell Adhesion Assay (α4β1 Mediated Adhesion/VCAM-1); endogenous in cells; host or cells: Ramos cells
Description: Ramos Cell Adhesion Assay (α4β1 Mediated Adhesion/VCAM-1). The note with it: Ramos cell adhesion to hVCAM-1; read-out: α4β1 IC50. The assay is classed as cell-based. The method in brief: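 Plates coated overnight at 4° C with recombinant hVCAM-1 at 4.0 μg/mL, pH 9.0, then blocked in PBS/1% BSA. Calcein AM-labeled Ramos cells added with compounds and left to adhere 1 h at room temperature; after washing, cells lysed in 1 M Tris pH 8.0/1% SDS.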

The next assay relates to TNBS induced colitis. Description: Trinitrobenzenesulfonic acid (TNBS) Induced Colitis, rats. The assay is classed as in vivo, Male Wistar rats. The note with it: rat. The text has this: In Vivo Model: Trinitrobenzenesulfonic acid (TNBS) Induced Colitis The TNBS model of experimental colitis (Bobin-Dubigeon, C., Collin, X., Grimaud, N., Robert, J-M., Guillaume Le Baut, G., and Petit, J-Y. Effects of tumour necrosis factor-a synthesis inhibitors on rat trinitrobenzene sulphonic acid-induced chronic colitis. Eur. J. […] These symptomatic signs in the above—mentioned models are similar to what occur in human colitis. Male Wistar rats (200-250 g) are inoculated with 500 microliters of a solution of 10 to 20 mg of TNBS in 30% ethanol delivered intracolonically via catheter or ball-tipped gavage needle to the 8th cm from the anus. When Balb/c female mice (8-12 weeks of age) were used, the inoculation volume was 50 microliters containing 2-3 mg of TNBS in 30% ethanol delivered intracolonically via catheter or ball-tipped gavage needle to the 4th cm from the anus. During the ensuing 7 days, test animals were administered a preparation of an experimental compound. This material may be administered orally, subcutaenously or intraperitoneally, once or twice daily. At the end of this period, the animals were euthanized and their colons were collected for further analysis. Among the parameters analyzed were the length of the colon starting from the anus to the top of the cecum, the weight of the colon, the consistency of any stools found within the colon, the presence or absence of intraperitoneal adhesions on the serosal surfacr of the intestin, and the gross macroscopic appearance of the colon. […] In rats, the distal colon between the 5th and the 8th centimeter is dissected and placed in 10% neutral buffered formalin for later histological analysis. In mice, the 1st to the 4th cm was collected for histological analyses. For the following parameters—colon length, colon weight, stool consistency and appearance and macroscopic damage—a scoring system was used to describe the changes. The four scores for each animal were added to provide a Total Score. […] For the presence of blood in stool, one point was added to scores <3. […] Histological analyses of tissues consisted of staining paraffin-embedded tissue sections with hematoxylin-eosin dye. Epithelial damage scores were determined as the fraction of the tissue section showing damaged epithelium. […] Statistic analyses for these experiments performed with Graphpad Prism 4.0, using ANOVA, with Dunnets or Bonferroni's multiple comparisons test.

The subject of the next assay is circulating leukocytes. Description: In Vivo Model for Leukocytosis. Further details: species or system Balb/c mice. The note with it: bled 1-1.5 h after administration. The text has this: In Vivo Model for Leukocytosis
Leukocytosis is the increase in circulating white blood cells (leukocytes). This can be brought about by preventing leukocyte binding to counter-receptor adhesion molecules expressed on high endothelial venules. This cell adhesion occurs between immunoglobulin superfamily molecules and integrins. Relevant examples of these paired interactions include […] Adhesion Molecule-1 and AlphaL Beta2 integrin, Vascular Cell Adhesion Molecule-1 and α4β1 integrin, and Mucosal Addressin Cell Adhesion Molecule-1 and α4β7 integrin, respectively.
In this model, a compound that antagonizes these leukocyte-endothelial interactions will cause an increase in circulating leukocytes, defined as leukocytosis, as measured at 1-1.5 h post-administration. This leukocytosis is indicative that normal lymphocyte or leukocyte emigration from the peripheral circulation was prevented. Similar emigration of cells out of the circulation into inflamed tissues is responsible for the progression and maintainance of the inflammatory state. Leukocytosis is an indication that lymphocyte and leukocyte extravasation is prevented, and is predictive of general anti-inflammatory activity.
One week prior to being tested, 7-10 week old female Balb/c mice, n=8 per group, were bled and randomized according to leukocyte counts. One week later, the mice were adminstered test compound orally or subcutaneously and then bled 1-1.5 h after drug administration, approximately 1 h after the peak blood concentration of the compound occurred. Whole blood, 250-350 microliters, was collected from each mouse into potassium-EDTA serum collection tubes (Becton-Dickenson) and mixed to prevent clotting.
Cell counts and differential counts on the whole blood preparation were performed using an Advia 120 Hematology System (Bayer Diagnostics). Cell counts as total leukocytes and as total lympohcytes were made and compared to counts made from mice dosed with vehicle only. Data were reported as percent of vehicle control for lymphocyte counts and total leukocyte counts.
Statistical analyses were performed using ANOVA with Dunnet's multiple comparison test.

In another assay the test system is DSS induced colitis. Description: Dextran Sulfate Sodium (DSS) Induced Colitis. The assay is classed as in vivo, Balb/c female mice and C57Black/6 mice. The text has this: In Vivo Model for Colitis: Dextran Sulfate Sodium (DSS) Induced Colitis Inflammatory bowel diseases such as ulcerative colitis and Crohn's disease are characterized by diminished intestinal barrier function, apparent inflammatory damage that may include erosive loss of intestinal mucosa, and inflammatory infiltrates in the mucosa and submucosa. […] Among the many possible chemicals used are dextran sulfate sodium (DSS) and trinitrobenzene sulfonic acid (TNBS). The dextran sulfate sodium model of experimental colitis is characterized by a shrinkage of the colon's length, macrosopic inflammatory damage, diarrhea, a discontinuous pattern of mucosal epithelial damage in the distal colon with infiltration of inflammatory cells that include macrophages and neutrophils into the mucosa and submucosa (Blumberg, R. S., Saubermann, L. J., and Strober, W. Animal models of mucosal inflammation and their relation to human inflammatory bowel disease. Current Opinion in Immunology, 11: 648-656, 1999; […]., and Nakaya, R. A novel method of induction of reliable experimental acute and chronic colitis in mice. […] Cooper, […]., and […]. Clinicopathologic study of dextran sulfate sodium experimental murine colitis. Lab Invest., 69: 238-249, 1993; […]., Bajaj-Elliott, M., MacDonald, […]., and Buchler, M. W. Characterization of acute murine dextran sodium sulphate colitis: Cytokine profile and dose dependency. Digestion, 62: 240-248, 2000; […]., Husband, A. J., and Doe, W. F. The inflammatory infiltrate in the acute stage of the dextran sulphate sodium induced colitis: B cell response differs depending on the percentage of DSS used to induce it. BMC Clinical Pathology, 1: 3-13, 2001; and Diaz-Granados, Howe, K., Lu, J, and […]. Dextran sulfate sodium-induced colonic histopathology, but not altered epithelial ion transport, is reduced by inhibition of phosphodiesterase activity. Amer. J. Pathology, 156: 2169-2177, 2000). Balb/c female mice and […]/6 mice were used in these studies. […] When […]/6 mice were used, a solution of tap water containing 4% DSS was used. During the ensuing 7-day period, test animals were administered a preparation of an experimental compound. This material may be administered orally or intraperitoneally or subcutaneously, once or twice daily. At the end of this period, the animals were euthanized and their colons were collected for further analysis. Among the parameters analyzed were the length of the colon starting from the anus to the top of the cecum, the consistency of any stools found within the colon, and the gross macroscopic appearance of the colon. The distal colon between the 1st and the 4th centimeter was removed and placed in 10% neutral buffered formalin for later histological analysis. For the following parameters, colon length, stool consistency and appearance, and macroscopic damage a scoring system is used to describe the changes. […] Thus, […] Histological analyses of tissues consisted of staining paraffin-embedded tissue sections with hematoxylin-eosin dye. Epithelial damage scores were determined as the fraction of the tissue section showing damaged epithelium. […] Statistical analysis performed in Graphpad Prism 4.0 using ANOVA with Dunnet's or Bonferroni's multiple comparison's test.

The subject of assay [1] is eosinophil peroxidase levels in ear punches. Description: PMA-Induced Inflammation in Mouse Ear Skin and Measurement of Eosinophil Peroxidase. The assay is classed as in vivo, BALB/C mice. The note with it: total dose 5 mg/kg po bid; ear punches 24 h after PMA; 5 mg/kg. Here is the method: Phorbol 12-Myristate 13-Acetate (PMA)-Induced Inflammation in Mouse Ear Skin and Measurement of Eosinophil Peroxidase
Phorbol 12-myristate 13-acetate (PMA) when applied to skin, generates a vigorous recruitment of immune cells to the site of application. Over a 24 hour period, there is accumulation of fluid and cells to the inflamed site, and thus is a general indicator of an inflammatory response. Among the recruited cells are eosinophils and neutrophils. Eosinophils can migrate into an inflamed or infected tissue via alpha 4 beta 1 integrin interactions with vascular cell adesion molecule-1 (VCAM-1) counter-receptors on vascular endothelial cells, and via alpha 4 beta 7 integrin to mucosal addressin cellular adhesion molecule on vascular endothelial cells in the gastrointestinal tract and mesenteric system. The recruited esoinophils can be quantified by measuring the presence of eosinophil peroxidase in a sample of the homogenized tissue.
Female BALB/C mice are ordered at 6 weeks of age and 16-18 grams from Charles River were used between 6-10 weeks of age. The animals were randomly assigned to groups of 10 (5/box) and housed in groups in plastic cages in a room with 12 h light-dark cycle and controlled temperature and humidity. They received food and water ad libitum.
Phorbol 12-myristate 13-acetate (PMA) was dissolved as 5 mg per mL stock in dimethyl sulfoxide (DMSO) and stored frozen as 20 microliter aliquots. For application to mouse ears, each aliquot was diluted in 2 mL with acetone.
The right ear of each mouse was treated topically with 20 microliters of acetone solution (10 microliters to each side of the ear) containing either 1 microgram of phorbol 12-myristate 13-acetate (PMA) or acetone alone.
Drugs that were tested orally were administered at −1 and +3 hours relative to PMA application.
Mice were sacrificed 24 h after PMA application. The right ear was punched with a 6 mm tissue punch and the tissue was placed in a tube on dry ice and kept frozen until extraction.
One tablet of phosphate citrate buffer was dissolved with urea hydrogen peroxide in 100 ml of water in which one tablet containing 60 mg of o-phenylenediaminedihydrochloride was added.
Ear tissue samples were homogenized in 2 ml of HTAB for 15 sec at speed 5.5 with a Polytron (large head) (Brinkman Instruments). The homogenate was stored at −20° C. until assayed. […]
Samples were typically tested at either a 1:2 or 1:4 dilution made with HTAB. […] Absorbance was read at 490 nm for the specific with subtraction of a 650 nm noise signal using a Thermomax 96-well spectrophotmetric plate reader (Molecular Devices). […]
The inhibition of PMA-induced ear edema was measured by eosinophil peroxidase levels in ear punches. […]

Setting [2] is: 30 mg/kg po bid, C57 Black/6 mice.
Setting [3] is: 60 mg/kg po bid, C57 Black/6 mice.

SMILES strings stand for the structures. Several values for one entry are separate records, joined by “and”; a condition that tells them apart may be missing. Equal entries are not always repeated.

T1 sequence (P13612 34-1032): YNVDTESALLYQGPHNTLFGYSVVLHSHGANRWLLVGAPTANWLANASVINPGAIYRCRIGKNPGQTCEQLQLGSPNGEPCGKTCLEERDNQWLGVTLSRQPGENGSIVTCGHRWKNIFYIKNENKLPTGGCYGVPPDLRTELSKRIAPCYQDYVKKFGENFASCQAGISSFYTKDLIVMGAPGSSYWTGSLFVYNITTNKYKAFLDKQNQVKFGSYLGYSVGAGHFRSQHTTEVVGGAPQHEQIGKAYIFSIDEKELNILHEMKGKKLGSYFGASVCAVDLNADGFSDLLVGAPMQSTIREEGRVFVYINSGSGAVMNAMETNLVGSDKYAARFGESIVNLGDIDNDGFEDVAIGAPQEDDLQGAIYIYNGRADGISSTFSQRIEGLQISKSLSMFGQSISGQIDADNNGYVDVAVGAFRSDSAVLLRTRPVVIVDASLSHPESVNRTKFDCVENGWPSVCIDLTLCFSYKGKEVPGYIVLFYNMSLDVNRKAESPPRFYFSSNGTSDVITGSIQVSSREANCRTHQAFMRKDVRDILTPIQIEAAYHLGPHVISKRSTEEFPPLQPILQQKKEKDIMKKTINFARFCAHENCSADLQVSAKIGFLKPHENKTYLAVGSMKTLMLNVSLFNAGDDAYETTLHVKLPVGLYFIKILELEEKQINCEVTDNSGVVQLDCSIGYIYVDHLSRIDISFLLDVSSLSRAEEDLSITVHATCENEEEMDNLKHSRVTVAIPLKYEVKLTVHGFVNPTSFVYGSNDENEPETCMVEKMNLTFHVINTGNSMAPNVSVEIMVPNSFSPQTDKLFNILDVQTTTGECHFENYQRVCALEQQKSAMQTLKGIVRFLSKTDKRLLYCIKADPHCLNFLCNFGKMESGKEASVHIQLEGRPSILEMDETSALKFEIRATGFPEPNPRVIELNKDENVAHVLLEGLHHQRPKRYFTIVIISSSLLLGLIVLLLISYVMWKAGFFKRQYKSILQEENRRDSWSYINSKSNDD
T1 sequence (P05556 21-798): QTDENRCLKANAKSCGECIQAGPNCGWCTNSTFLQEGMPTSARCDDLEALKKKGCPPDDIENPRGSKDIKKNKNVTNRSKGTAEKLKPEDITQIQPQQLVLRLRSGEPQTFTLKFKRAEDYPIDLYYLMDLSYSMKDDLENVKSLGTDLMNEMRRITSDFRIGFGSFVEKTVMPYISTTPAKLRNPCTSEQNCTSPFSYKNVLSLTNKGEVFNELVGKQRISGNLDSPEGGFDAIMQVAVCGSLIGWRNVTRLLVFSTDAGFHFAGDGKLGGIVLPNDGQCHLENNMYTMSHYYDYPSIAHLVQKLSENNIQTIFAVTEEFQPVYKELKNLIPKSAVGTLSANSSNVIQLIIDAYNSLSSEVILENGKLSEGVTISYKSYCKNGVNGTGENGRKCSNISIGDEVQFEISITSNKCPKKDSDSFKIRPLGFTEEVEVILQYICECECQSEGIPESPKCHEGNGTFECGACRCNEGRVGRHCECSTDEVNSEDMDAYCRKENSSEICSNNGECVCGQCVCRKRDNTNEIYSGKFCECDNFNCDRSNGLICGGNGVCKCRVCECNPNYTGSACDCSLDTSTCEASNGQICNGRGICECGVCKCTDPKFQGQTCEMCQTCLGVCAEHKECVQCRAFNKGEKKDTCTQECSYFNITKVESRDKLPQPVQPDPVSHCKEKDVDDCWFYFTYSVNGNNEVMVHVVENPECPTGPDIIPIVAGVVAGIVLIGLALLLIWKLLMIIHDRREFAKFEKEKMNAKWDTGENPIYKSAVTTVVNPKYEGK

Broadly, the IC50 is the concentration at which inhibition is half-maximal. Turning to `COc1cnn(C)c(=O)c1-c1ccc(C[C@H](NC(=O)c2cc(F)ccc2Cl)C(=O)OCCO)cc1` [Cpd 2], the IC50 on α4β1 was over 5 µM. For the same compound, in the assay with TNBS induced colitis (30 mg/kg po bid), the “% Inhibition of Epithelial Damage Score” value is 10.25% and the “% Inhibition of Total Macroscopic Score” value is recorded as −0.885%.

As to `COc1cnn(CCO)c(=O)c1-c1ccc(C[C@H](NC(=O)OC(C)(C)C)C(=O)OCCO)cc1` [Cpd 231], the “Lymphoycte Counts % of Vehicle Control” value in the assay on circulating leukocytes (3 mg/kg po) worked out at 114.5%; in the assay with circulating leukocytes (10 mg/kg po), 94.0%; with circulating leukocytes (30 mg/kg po), 88.7%. In addition, the “Total Leukocyte Count % of Vehicle Control” value is on record as 110.7% with circulating leukocytes (3 mg/kg po), 98.0% in the assay with circulating leukocytes (10 mg/kg po) and 86.9% in the assay on circulating leukocytes (30 mg/kg po). The “% Inhibition of Epithelial Damage Score” value was found to be 23.91% with DSS induced colitis (setting [2]); 53.9% with DSS induced colitis (setting [3]); 36.5% with DSS induced colitis (60 mg/kg po bid, balb/c mice); 24.69% in the assay with TNBS induced colitis (30 mg/kg po bid); 38.64% in the assay on TNBS induced colitis (60 mg/kg po bid). Besides, the “% Inhibition of Total Macroscopic Score” value in the assay on DSS induced colitis (setting [2]) stood at 13.4%; with DSS induced colitis (30 mg/kg po bid, balb/c mice), 43.8%; in the assay with DSS induced colitis (setting [3]), 23.4%; in the assay with DSS induced colitis (60 mg/kg po bid, balb/c mice) it was 47.7%; in the assay with TNBS induced colitis (30 mg/kg po bid), 19.33%; in the assay with TNBS induced colitis (60 mg/kg po bid), 5.455%.

Turning to `C[C@@H]1C[C@H]2[C@@H]3CCC4=CC(=O)C=C[C@]4(C)[C@@]3(F)[C@@H](O)C[C@]2(C)[C@@]1(O)C(=O)CO` [dexamethasone], the “% Inh. of Eosinophil Peroxidase” value in assay [1] is 83.6% and 109.0%.
